According to patent US20230212159A1, “Process for the Production of Ferroportin Inhibitors” (Vifor (International) AG, priority 2020, published 2023):
pEC50, pIC50: −log10 of the molar value. Read-outs that look alike come from different tables or passages of the source.

Legend:
[1] = molecular target: T1, ferroportin (Fpn) (Homo sapiens, UniProt Q9NP59); test: Inhibition of ferroportin mediated iron export activity in an iron response assay (BLA reporter, HEK-293 cell line #354); format: cell-based; conditions: for pIC50: HEK-293 cell line #354, BLA reporter, tested as 3HCl-salts, n=3, read-out: Iron response (HEK354 Blazer) IC50; for pEC50: average of multiple measurements, iron response assay, 3HCl-salts, read-out: BLAzer EC50
T1 construct: expressed in transfected cells; host or cells: HEK-293 cell line #354 (derivative of HEK-293 Tet-ON Advanced)
T1 sequence (Q9NP59 1-571): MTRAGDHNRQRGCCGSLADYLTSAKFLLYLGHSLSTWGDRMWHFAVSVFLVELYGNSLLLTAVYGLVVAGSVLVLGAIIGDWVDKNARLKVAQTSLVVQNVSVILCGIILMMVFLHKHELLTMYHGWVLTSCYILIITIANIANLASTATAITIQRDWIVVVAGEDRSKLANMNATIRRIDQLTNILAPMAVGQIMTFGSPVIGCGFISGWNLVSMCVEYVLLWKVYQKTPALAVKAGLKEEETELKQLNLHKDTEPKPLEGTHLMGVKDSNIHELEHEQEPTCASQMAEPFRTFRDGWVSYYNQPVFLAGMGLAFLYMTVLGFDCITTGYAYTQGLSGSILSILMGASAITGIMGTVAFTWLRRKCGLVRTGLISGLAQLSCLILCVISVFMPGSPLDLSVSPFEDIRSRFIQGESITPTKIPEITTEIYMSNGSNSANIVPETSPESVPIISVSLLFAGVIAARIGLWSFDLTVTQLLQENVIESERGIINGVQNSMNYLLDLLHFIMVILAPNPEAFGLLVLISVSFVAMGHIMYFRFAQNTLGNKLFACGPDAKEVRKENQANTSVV
From the text: Intracellular iron levels are indirectly measured in this assay by monitoring the activity of a beta-lactamase (BLA) reporter gene fused to the human ferritin promoter and the associated iron regulatory element (IRE) contained within the 5′ untranslated region of the ferritin mRNA. Expression of ferroportin (Fpn) in such a cell line leads to iron efflux and lower iron levels as reflected by lower activity of the reporter gene. On the other hand, inhibition of Fpn-mediated iron efflux results in elevated cellular iron levels which is detected as increased reporter gene activity. Small molecular weight Fpn inhibitor compounds were tested for dose-dependent effects in this in vitro iron response assay as described below.
The HEK-293 cell line #354 was generated by stable integration of (i) a human Fpn-GFP fusion construct inserted in a derivative of the doxycycline-inducible pTRE-Tight-BI plasmid (Clontech, Cat. 631068) and (ii) a human ferritin promoter-BLA reporter gene into a derivative of the HEK-293 Tet-ON Advanced cell line (Clontech). To generate the ferritin-BLA reporter gene construct, a 1.4 kb fragment of the human ferritin H promoter was amplified by PCR from human genomic DNA (forward primer 5′-[…]-3′; reverse primer 5′-GGCGGCGACTAAGGAGAGG-3′) and inserted in front of the BLA gene present in the pcDNA™6.2/cGeneBLAzer™-DEST plasmid (Invitrogen, Cat. 12578-043) thereby replacing the original CMV promoter and placing the IRE that regulates translation of the ferritin gene ca. 170 bp upstream of the start codon of the reporter gene. #354 cells were harvested from ca. 80% confluent cultures, seeded at 1.8x10^5 cells/ml in DMEM/F12 GlutaMAX™ medium (Invitrogen, Cat. 31331-028) containing 10% FBS (Clontech, Cat. 631106), 1% Penicillin-Streptomycin, 200 µg/ml Hygromycin B (Invitrogen, Cat. 10687-010), Blasticidin 5 µg/ml, (Invitrogen, Cat. R210-01), 4 µg/ml doxycycline (Clontech, Cat. 631311), 50 µl per well of 384 well PDL-coated plates and grown at 37° C. with 5% CO2. After overnight incubation, 10 µl/well of dilution series of the test compounds were added in quadruplicates and plates were further incubated overnight at 37° C. with 5% CO2. Cells were washed 3 times with HBSS leaving 25 µl per well. BLA activity was detected by adding 5 µl/well of the GeneBlazer reagent CCF4-AM (Invitrogen, Cat. K1085) to the cells. After incubation of the plates in the dark at 18° C. for 60 min., blue and green fluorescence signals were measured in a Safire2 fluorescence plate reader (Tecan) with excitation at 410 nm and emissions at 458 nm (blue) and 522 nm (green). The ratio of blue/green fluorescence as a measure for BLA activity was calculated and EC50 values were determined with the calculated blue/green fluorescence ratios as described for the hepcidin internalization assay.

[2] = molecular target: T2, human Fpn-GFP fusion protein (Homo sapiens, UniProt Q9NP59); test: Ferroportin internalization and degradation assay (FACS, HEK-293 cell line #354); format: cell-based
T2 construct: expressed in transfected cells; host or cells: HEK-293 cell line #354 (derivative of HEK-293 Tet-ON Advanced)
T2 sequence (Q9NP59 1-571): T1 sequence (Q9NP59 1-571)
Protocol: HEK-293 cell line #354 (described in 11.3) was used to measure the capacity of the compounds to induce internalization and degradation of ferroportin (Fpn) by fluorescence activated cell sorting (FACS). Growing HEK-293 #354 cells in doxycycline containing media induced expression of human Fpn-GFP fusion protein on the cell surface. […] Small molecular weight Fpn inhibitor compounds were tested for dose-dependent effects on the Fpn-GFP mean fluorescence intensity (MFI) on HEK-293 cell line #354, as described below.
HEK#354 cells were harvested from ca. 80% confluent cultures, seeded at 0.6x10^6 cells/ml in DMEM/F12 GlutaMAX™ medium (Invitrogen, Cat. 31331-028) containing 10% FBS (Clontech, Cat. 631106), 1% Penicillin-Streptomycin (Invitrogen, Cat. 15140-122), 200 µg/ml Hygromycin B (Invitrogen, Cat. 10687-010), Blasticidin 5 µg/ml, (Invitrogen, Cat. R210-01), 4 µg/ml doxycycline (Clontech, Cat. 631311), 50 µl per well of 384 well plates (Greiner; Cat. 781091) and grown at 37° C. with 5% CO2. After overnight incubation, 10 µl/well of dilution series of the test compounds were added in quadruplicates and plates were further incubated overnight at 37° C. with 5% CO2. Cells were washed once with FACS buffer (PBS containing 1% FBS, 2 mM EDTA and 0.05% NaN3), harvested in FACS buffer with 0.5 µg/ml propidium iodide (Sigma, Cat. P4864) and analyzed in a flow cytometer (CANTO^tm II, BD Biosciences) equipped with high throughput sampler. Live HEK#354 cells were gated as propidium iodide negative population and analyzed for expression of Fpn-GFP. MFI of Fpn-GFP of > 2000 live cells for each compound dilution was calculated using FlowJo (Tree Star’s, Oregon) and the potency of the Fpn-inhibitors to induce internalization and degradation of Fpn-GFP was calculated as described for the hepcidin internalization assay. EC50 data of the Compounds (II) and (II′) tested in the ferroportin internalization and degradation assay by FACS are listed in Table 4. The average EC50 value of hepcidin in this assay is 0.004 ± 0.002 µM.

[3] = HEK-293 cell line #354, FACS, tested as 3HCl-salts, n=2, read-out: Fpn internalization and degradation (HEK354 FACS) IC50
[4] = average of multiple measurements, HEK-293 #354 FACS, 3HCl-salts, read-out: EC50 (ferroportin internalization and degradation assay)

| Compound | pIC50 [1] | pEC50 [1] | DC50 [2, 3] | DC50 [2, 4] |
| --- | --- | --- | --- | --- |
| O=C(NCc1ncccc1Br)c1coc(CCNCCc2nc3ccccc3[nH]2)n1 [Compound (II′)] | 6.77 | 6.77 | 161 nM | 161 nM |
| O=C(NCc1ncccc1F)c1coc(CCNCCc2nc3ccccc3[nH]2)n1 [Compound (II)] | 6.81 | 6.81 | 119 nM | 119 nM |
| CC[C@H](C)[C@@H]1NC(=O)[C@@H](NC(=O)[C@@H](NC(=O)[C@@H]2CCCN2C(=O)[C@H](Cc2ccccc2)NC(=O)[C@H](Cc2c[nH]cn2)NC(=O)[C@@H](NC(=O)[C@@H](N)CC(=O)O)[C@@H](C)O)[C@@H](C)CC)CSSC[C@@H](C(=O)N[C@@H](CCCCN)C(=O)N[C@H](C(=O)O)[C@@H](C)O)NC(=O)[C@@H]2CSSC[C@@H]3NC(=O)[C@@H]4CSSC[C@H](NC(=O)[C@H](Cc5ccccc5)NC1=O)C(=O)N[C@@H](CSSC[C@H](NC(=O)[C@H](CCCCN)NC(=O)[C@H](CO)NC(=O)[C@H](CCCNC(=N)N)NC(=O)[C@H](Cc1c[nH]cn1)NC3=O)C(=O)NCC(=O)N[C@@H](CCSC)C(=O)N2)C(=O)NCC(=O)N4 [hepcidin, reference compound] | 7.41 | – | 6 nM | – |
